Laboratory results taken from PubChem BioAssay (NCI).
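All cell lines were grown in 96-well plates and treated with compound for 48 hours. TGI: concentration producing complete growth inhibition.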 Where a SMILES comes first, the peptide text is derived from it. Bridges are numbered along the chain shown (N, C = ends).

What was measured:
Experiment in all cases: NCI tumour cell line growth inhibition, 48 h
[1] = system: HOP-62 NSCLC
[2] = system: COLO 205 colon
[3] = system: EKVX NSCLC
[4] = system: ACHN renal
[5] = system: SN12C renal
[6] = system: SK-MEL-2 melanoma
[7] = system: U251 CNS
[8] = system: NCI-H23 lung
[9] = system: A549 NSCLC
[10] = system: SNB-19 CNS
[11] = system: OVCAR-3 ovarian
[12] = system: SNB-75 CNS
[13] = system: NCI/ADR-RES ovarian
[14] = system: SF-295 CNS
[15] = system: NCI-H460 lung
[16] = system: HCT-116 colon
[17] = system: UO-31 renal
[18] = system: HL-60(TB) leukemia
[19] = system: M14 melanoma
[20] = system: HCC-2998 colon
[21] = system: UACC-257 melanoma
[22] = system: SF-539 CNS
[23] = system: HCT-15 colon
[24] = system: OVCAR-4 ovarian
[25] = system: MDA-MB-231 breast
[26] = system: KM12 colon
[27] = system: UACC-62 melanoma
[28] = system: IGROV1 ovarian
[29] = system: PC-3 prostate
[30] = system: NCI-H522 lung
[31] = system: BT-549 breast
[32] = system: SK-MEL-28 melanoma
[33] = system: OVCAR-5 ovarian
[34] = system: HS 578T breast
[35] = system: SK-MEL-5 melanoma
[36] = system: LOX IMVI melanoma
[37] = system: HT29 colon
[38] = system: T-47D breast
[39] = system: MDA-N
[40] = system: TK-10 renal
[41] = system: DU-145 prostate
[42] = system: OVCAR-8 ovarian
[43] = system: HOP-92 NSCLC
[44] = system: MDA-MB-435
[45] = system: 786-0 renal
[46] = system: CAKI-1 renal
[47] = system: MALME-3M melanoma
[48] = system: K-562 leukemia
[49] = system: RPMI-8226 leukemia
[50] = system: RXF 393 renal
[51] = system: MCF7 breast
[52] = system: NCI-H226 lung
[53] = system: SK-OV-3 ovarian
[54] = system: MOLT-4 leukemia
[55] = system: SW-620 colon
[56] = system: CCRF-CEM leukemia
[57] = system: A498 renal
[58] = system: SF-268 CNS

CCC(C)C1NC(=O)C(CC(C)C)NC(=O)C(C(C)C)NC(=O)C2CSSCC(NC1=O)C(=O)N2 (stereo unspecified) (cyclo(CCVLI); disulfide 1-2; configuration not given here)
TGI [1]: 0.554 µM
TGI [2]: 0.223 µM
TGI [3]: 0.452 µM
TGI [4]: 1.82 µM
TGI [5]: 0.351 µM
TGI [6]: 0.363 µM
TGI [7]: 0.149 µM
TGI [8]: 0.277 µM
TGI [9]: 0.399 µM
TGI [10]: 0.344 µM
TGI [11]: 0.395 µM
TGI [12]: 0.238 µM
TGI [13]: > 100 µM
TGI [14]: 0.34 µM
TGI [15]: 0.26 µM
TGI [16]: 0.187 µM
TGI [17]: 5.84 µM
TGI [18]: 0.339 µM
TGI [19]: 1.01 µM
TGI [20]: 0.216 µM
TGI [21]: 0.279 µM
TGI [22]: 0.316 µM
TGI [23]: 7.12 µM
TGI [24]: 0.362 µM
TGI [25]: 0.233 µM
TGI [26]: 0.223 µM
TGI [27]: 0.228 µM
TGI [28]: 0.309 µM
TGI [29]: 0.329 µM
TGI [30]: 0.355 µM
TGI [31]: 0.369 µM
TGI [32]: 0.269 µM
TGI [33]: 0.381 µM
TGI [34]: 0.271 µM
TGI [35]: 0.293 µM
TGI [36]: 0.239 µM
TGI [37]: 0.356 µM
TGI [38]: 0.182 µM
TGI [39]: 0.339 µM
TGI [40]: 1.93 µM
TGI [41]: 0.301 µM
TGI [42]: 0.491 µM
TGI [43]: 0.248 µM
TGI [44]: 0.391 µM
TGI [45]: 0.315 µM
TGI [46]: 5.41 µM

[O-][N+]1=C(c2ccccc2)/C(=C2/C(c3ccccc3)=[N+]([O-])c3ccccc32)Cc2ccccc21
TGI [1]: > 100 µM
TGI [2]: 34.7 µM
TGI [3]: 48.5 µM
TGI [4]: 50.6 µM
TGI [47]: 40.8 µM
TGI [5]: 32.4 µM
TGI [6]: 36.6 µM
TGI [7]: 38.7 µM
TGI [8]: 34.7 µM
TGI [9]: 35.2 µM
TGI [10]: 44.3 µM
TGI [11]: 38.1 µM
TGI [12]: 47.1 µM
TGI [13]: 34.4 µM
TGI [14]: 42.9 µM
TGI [16]: 31.4 µM
TGI [17]: 28.5 µM
TGI [18]: > 100 µM
TGI [19]: 53.7 µM
TGI [48]: 58.1 µM
TGI [20]: 29.5 µM
TGI [21]: 40.9 µM
TGI [22]: 56.4 µM
TGI [23]: 36.7 µM
TGI [24]: 38.9 µM
TGI [49]: 52 µM
TGI [25]: 33.5 µM
TGI [26]: 33.9 µM
TGI [50]: 53.1 µM
TGI [51]: > 100 µM
TGI [27]: 28.7 µM
TGI [52]: 42.2 µM
TGI [28]: 35.2 µM
TGI [53]: > 100 µM
TGI [29]: 34.9 µM
TGI [30]: 30.5 µM
TGI [32]: 46.2 µM
TGI [33]: > 100 µM
TGI [35]: 35.4 µM
TGI [36]: 34.5 µM
TGI [37]: 35.9 µM
TGI [38]: 45.8 µM
TGI [39]: 31.7 µM
TGI [40]: 49.2 µM
TGI [41]: 63.8 µM
TGI [42]: 35.6 µM
TGI [54]: 54.3 µM
TGI [43]: 32.9 µM
TGI [44]: 55.1 µM
TGI [55]: 59.2 µM
TGI [45]: 34.9 µM
TGI [56]: 60.1 µM
TGI [57]: 21.1 µM
TGI [46]: 47.4 µM

CC(C)(C)C1CCC2c3c([nH]c4ccccc34)C3C(=O)N(c4cc(Cl)ccc4Cl)C(=O)C3C2C1 (stereo unspecified)
TGI [1]: > 100 µM
TGI [2]: > 100 µM
TGI [3]: > 100 µM
TGI [4]: > 100 µM
TGI [47]: > 100 µM
TGI [5]: > 100 µM
TGI [6]: > 100 µM
TGI [8]: > 100 µM
TGI [9]: > 100 µM
TGI [10]: > 100 µM
TGI [11]: > 100 µM
TGI [13]: > 100 µM
TGI [14]: > 100 µM
TGI [15]: > 100 µM
TGI [16]: > 100 µM
TGI [17]: > 100 µM
TGI [19]: > 100 µM
TGI [48]: > 100 µM
TGI [20]: > 100 µM
TGI [21]: > 100 µM
TGI [22]: > 100 µM
TGI [23]: > 100 µM
TGI [49]: > 100 µM
TGI [25]: > 100 µM
TGI [50]: > 100 µM
TGI [51]: > 100 µM
TGI [27]: > 100 µM
TGI [52]: > 100 µM
TGI [28]: > 100 µM
TGI [53]: > 100 µM
TGI [29]: > 100 µM
TGI [31]: > 100 µM
TGI [33]: > 100 µM
TGI [34]: > 100 µM
TGI [35]: > 100 µM
TGI [36]: > 100 µM
TGI [37]: > 100 µM
TGI [39]: > 100 µM
TGI [40]: > 100 µM
TGI [41]: > 100 µM
TGI [42]: > 100 µM
TGI [54]: > 100 µM
TGI [43]: > 100 µM
TGI [44]: > 100 µM
TGI [55]: > 100 µM
TGI [45]: > 100 µM
TGI [56]: > 100 µM
TGI [57]: > 100 µM
TGI [46]: > 100 µM

CN(CCCNC(=O)c1cn(C)c2c1ccc1ccccc12)CCCNC(=O)c1cn(C)c2c1ccc1ccccc12
TGI [1]: 2.95 µM
TGI [2]: 5.07 µM
TGI [3]: 3.42 µM
TGI [4]: 3.33 µM
TGI [5]: 2.71 µM
TGI [8]: 2.95 µM
TGI [9]: 2.62 µM
TGI [10]: 5.65 µM
TGI [11]: 2.84 µM
TGI [13]: 3.34 µM
TGI [14]: 16.8 µM
TGI [15]: 2.83 µM
TGI [16]: 3.12 µM
TGI [17]: 2.75 µM
TGI [19]: 2.92 µM
TGI [20]: 2.7 µM
TGI [21]: 3.06 µM
TGI [23]: 3.38 µM
TGI [24]: 27.3 µM
TGI [26]: 2.96 µM
TGI [27]: 4.68 µM
TGI [52]: 12 µM
TGI [58]: 3.05 µM
TGI [28]: 2.31 µM
TGI [29]: 2.83 µM
TGI [32]: 3.67 µM
TGI [34]: 3.19 µM
TGI [35]: 3.33 µM
TGI [37]: 2.89 µM
TGI [39]: 2.76 µM
TGI [41]: 3.08 µM
TGI [43]: 3.57 µM
TGI [55]: 6.41 µM
TGI [45]: 4.5 µM
TGI [56]: > 100 µM
TGI [57]: 47.9 µM
TGI [46]: 2.87 µM
